Nine compounds from patent publication US20230139171A1 (SITA Information Networking Computing UK Limited, priority 2019, published 2023) can be followed below.

Format in all cases: cell-based
Assay [1] has as its target T1, human TLR7 (Homo sapiens, UniProt Q9NYK1).
T1 construct: host or cells: HEK-Blue cells
T1 sequence (Q9NYK1 27-1049): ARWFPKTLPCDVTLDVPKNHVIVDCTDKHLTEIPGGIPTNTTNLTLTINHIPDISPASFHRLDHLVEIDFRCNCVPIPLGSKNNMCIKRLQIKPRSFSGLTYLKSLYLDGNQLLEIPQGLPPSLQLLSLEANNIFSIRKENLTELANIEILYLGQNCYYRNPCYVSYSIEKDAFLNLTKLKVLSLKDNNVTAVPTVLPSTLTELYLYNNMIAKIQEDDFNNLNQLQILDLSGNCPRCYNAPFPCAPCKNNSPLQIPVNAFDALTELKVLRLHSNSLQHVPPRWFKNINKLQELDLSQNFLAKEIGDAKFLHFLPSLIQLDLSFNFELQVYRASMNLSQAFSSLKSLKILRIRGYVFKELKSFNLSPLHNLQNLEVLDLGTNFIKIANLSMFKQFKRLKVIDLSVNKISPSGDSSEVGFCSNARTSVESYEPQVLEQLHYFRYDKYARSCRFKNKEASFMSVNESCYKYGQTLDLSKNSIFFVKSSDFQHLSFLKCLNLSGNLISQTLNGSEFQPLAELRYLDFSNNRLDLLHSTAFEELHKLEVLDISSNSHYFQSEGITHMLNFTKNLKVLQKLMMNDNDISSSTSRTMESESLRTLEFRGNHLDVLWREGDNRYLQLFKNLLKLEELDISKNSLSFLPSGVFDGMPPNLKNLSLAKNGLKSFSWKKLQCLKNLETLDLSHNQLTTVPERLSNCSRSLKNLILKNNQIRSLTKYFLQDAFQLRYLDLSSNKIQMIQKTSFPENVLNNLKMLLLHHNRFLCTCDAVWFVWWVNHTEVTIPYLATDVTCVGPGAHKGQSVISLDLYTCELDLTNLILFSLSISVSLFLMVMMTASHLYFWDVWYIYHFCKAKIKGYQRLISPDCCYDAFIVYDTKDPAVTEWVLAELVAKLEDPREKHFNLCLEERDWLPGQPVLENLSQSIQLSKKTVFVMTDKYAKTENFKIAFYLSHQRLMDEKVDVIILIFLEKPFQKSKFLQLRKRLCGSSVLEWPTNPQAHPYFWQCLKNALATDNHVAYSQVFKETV
Kind of assay: TLR7 inhibition reporter assay (HEK-Blue cells, SEAP reporter, gardiquimod stimulation). Particulars: HEK-Blue cells overexpressing human TLR7, SEAP reporter, gardiquimod 7.5 μM; read-out: TLR7 IC50. Summed up: (§1)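 Compound treatment: 30 min, RT, 0.05 nM–50 μM final. Agonist: TLR7 gardiquimod 7.5 μM; TLR8 R848 15.9 μM; TLR9 ODN2006 5 nM. Incubation 22 h, 37 °C, 5% CO2. Readout SEAP, HEK-Blue Detection.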
(Reporter assays use an easily measured gene product as a stand-in for the process of interest.)

The target in assay [2] is T2, human TLR9 (Homo sapiens, UniProt Q9NR96).
T2 construct: host or cells: HEK-Blue cells
T2 sequence (Q9NR96 26-1032): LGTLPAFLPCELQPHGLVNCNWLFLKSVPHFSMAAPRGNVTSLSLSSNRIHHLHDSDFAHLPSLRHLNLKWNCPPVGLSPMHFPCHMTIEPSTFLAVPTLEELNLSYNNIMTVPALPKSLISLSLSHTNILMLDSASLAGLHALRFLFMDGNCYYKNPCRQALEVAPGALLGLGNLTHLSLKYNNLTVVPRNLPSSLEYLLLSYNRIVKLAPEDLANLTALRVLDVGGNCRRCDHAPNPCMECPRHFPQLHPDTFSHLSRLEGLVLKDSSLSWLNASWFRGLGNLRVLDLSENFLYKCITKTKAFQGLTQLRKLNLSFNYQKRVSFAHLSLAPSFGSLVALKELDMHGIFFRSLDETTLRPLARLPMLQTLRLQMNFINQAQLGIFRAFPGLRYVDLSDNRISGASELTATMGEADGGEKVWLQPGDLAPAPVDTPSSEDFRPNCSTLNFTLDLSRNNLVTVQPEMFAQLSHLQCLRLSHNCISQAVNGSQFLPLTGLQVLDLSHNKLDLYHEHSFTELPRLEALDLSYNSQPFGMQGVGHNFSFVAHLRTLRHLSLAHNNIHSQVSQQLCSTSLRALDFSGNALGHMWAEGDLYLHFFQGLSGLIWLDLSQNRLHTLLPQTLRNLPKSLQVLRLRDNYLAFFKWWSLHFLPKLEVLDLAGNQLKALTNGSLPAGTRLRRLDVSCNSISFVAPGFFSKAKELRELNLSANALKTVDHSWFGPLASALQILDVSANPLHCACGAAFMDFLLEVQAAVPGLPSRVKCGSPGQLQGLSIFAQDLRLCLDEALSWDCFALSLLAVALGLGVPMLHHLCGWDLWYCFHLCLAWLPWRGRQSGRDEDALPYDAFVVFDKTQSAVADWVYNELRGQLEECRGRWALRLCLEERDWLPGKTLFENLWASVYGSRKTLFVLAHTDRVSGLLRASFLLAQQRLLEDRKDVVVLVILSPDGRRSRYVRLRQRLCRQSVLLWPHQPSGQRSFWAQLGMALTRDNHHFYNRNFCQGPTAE
Kind of assay: TLR9 inhibition reporter assay (HEK-Blue cells, SEAP reporter, ODN2006 stimulation). Particulars: HEK-Blue cells overexpressing human TLR9, SEAP reporter, ODN2006 5 nM. As to the method: TLR7/8/9 Inhibition Reporter Assays
HEK-Blue™-cells (Invivogen) overexpressing human TLR7, TLR8 or TLR9 receptors were used for screening inhibitors of these receptors using an inducible SEAP (secreted embryonic alkaline phosphatase) reporter gene under the control of the IFN-β minimal promoter fused to five NF-κB and AP-1-binding sites. Briefly, cells are seeded into Greiner 384 well plates (15000 cells per well for TLR7, 20,000 for TLR8 and 25,000 for TLR9) and then treated with test compounds in DMSO to yield a final dose response concentration range of 0.05 nM-50 μM. After a 30 minute compound pre-treatment at room temperature, the cells are then stimulated with a TLR7 ligand (gardiquimod at a final concentration of 7.5 μM), TLR8 ligand (R848 at a final concentration of 15.9 μM) or TLR9 ligand (ODN2006 at a final concentration of 5 nM) to activate NF-κB and AP-1 which induce the production of SEAP. After a 22 hour incubation at 37° C., 5% CO2, SEAP levels are determined with the addition of HEK-Blue™ Detection reagent (Invivogen), a cell culture medium that allows for detection of SEAP, according to manufacturer's specifications. The percent inhibition is determined as the % reduction in the HEK-Blue signal present in wells treated with agonist plus DMSO alone compared to wells treated with a known inhibitor.

For assay [3], the target named is T3, human TLR8 (Homo sapiens, UniProt Q9NR97).
T3 construct: host or cells: HEK-Blue cells
T3 sequence (Q9NR97 27-1041): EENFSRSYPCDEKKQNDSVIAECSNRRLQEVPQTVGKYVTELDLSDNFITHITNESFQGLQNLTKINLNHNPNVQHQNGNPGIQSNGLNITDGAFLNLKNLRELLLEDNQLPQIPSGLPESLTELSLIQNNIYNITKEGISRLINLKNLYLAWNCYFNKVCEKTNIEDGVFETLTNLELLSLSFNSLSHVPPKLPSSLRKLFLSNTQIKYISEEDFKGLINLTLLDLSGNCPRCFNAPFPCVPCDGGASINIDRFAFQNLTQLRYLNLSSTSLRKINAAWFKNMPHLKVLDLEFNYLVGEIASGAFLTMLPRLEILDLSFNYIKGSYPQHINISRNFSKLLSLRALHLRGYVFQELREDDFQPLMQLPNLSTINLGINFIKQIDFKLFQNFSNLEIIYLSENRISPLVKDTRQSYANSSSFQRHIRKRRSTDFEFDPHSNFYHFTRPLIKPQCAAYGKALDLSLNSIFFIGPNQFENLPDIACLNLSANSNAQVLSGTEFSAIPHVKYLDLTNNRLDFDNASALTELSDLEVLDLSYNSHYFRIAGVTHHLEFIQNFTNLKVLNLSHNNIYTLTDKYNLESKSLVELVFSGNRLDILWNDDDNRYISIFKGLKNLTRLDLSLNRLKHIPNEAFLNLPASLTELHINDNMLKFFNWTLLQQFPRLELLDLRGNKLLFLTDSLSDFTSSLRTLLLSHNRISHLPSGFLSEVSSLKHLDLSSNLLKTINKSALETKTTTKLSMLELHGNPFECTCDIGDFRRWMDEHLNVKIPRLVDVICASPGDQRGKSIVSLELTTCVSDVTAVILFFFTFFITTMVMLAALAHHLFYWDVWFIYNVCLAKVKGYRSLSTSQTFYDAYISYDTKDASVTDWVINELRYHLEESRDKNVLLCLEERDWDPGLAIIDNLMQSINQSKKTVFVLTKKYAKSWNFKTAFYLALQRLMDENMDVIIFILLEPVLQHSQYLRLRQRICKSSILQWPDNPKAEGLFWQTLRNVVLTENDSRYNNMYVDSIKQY
Kind of assay: TLR8 inhibition reporter assay (HEK-Blue cells, SEAP reporter, R848 stimulation). To be noted: HEK-Blue cells overexpressing human TLR8, SEAP reporter, R848 15.9 μM; read-out: TLR8 IC50. The method, boiled down:
as §1

One may read the IC50 as the midpoint of a concentration-inhibition curve. Regarding `COc1cc(-c2[nH]c3sc(C4CCC(N5CC6(COC6)C5)CC4)nc3c2C(C)C)cn2ncnc12` (single isomer, unassigned) [Example 69, 6-(4-(6-isopropyl-5-(8-methoxy-[1,2,4]triazolo[1,5-a]pyridin-6-yl)-4H-pyrrolo[3,2-d]thiazol-2-yl)cyclohexyl)-2-oxa-6-azaspiro[3.3]heptane], the figures for the IC50 in assay [1], in assay [2] and in assay [3] were 4.17 nM, 6.32 µM and 35.6 nM, respectively.
On to `COc1cc(-c2[nH]c3sc(C4CCC(NC5(C)COC5)CC4)nc3c2C(C)C)cn2ncnc12` (single isomer, unassigned) [Example 70, N-(4-(6-isopropyl-5-(8-methoxy-[1,2,4]triazolo[1,5-a]pyridin-6-yl)-4H-pyrrolo[3,2-d]thiazol-2-yl)cyclohexyl)-3-methyloxetan-3-amine], for which the IC50 in assay [1] is 0.58 nM; in assay [2] it was 6.61 µM; in assay [3], 1.46 nM.
`COc1cc(-c2[nH]c3sc(C4CCC(NC5(C)COC5)CC4)nc3c2C(C)C)cn2ncnc12` (single isomer, unassigned) [Example 71, N-(4-(6-isopropyl-5-(8-methoxy-[1,2,4]triazolo[1,5-a]pyridin-6-yl)-4H-pyrrolo[3,2-d]thiazol-2-yl)cyclohexyl)-3-methyloxetan-3-amine]: the IC50 in assay [1] amounted to 6.92 nM; in assay [2] it was 5.81 µM; in assay [3] it was 19 nM.
On to `CCN(C)C1CCC(c2nc3c(C(C)C)c(-c4cc(OC)c5ncnn5c4)[nH]c3s2)CC1` (single isomer, unassigned) [Example 72, N-ethyl-4-(6-isopropyl-5-(8-methoxy-[1,2,4]triazolo[1,5-a]pyridin-6-yl)-4H-pyrrolo[3,2-d]thiazol-2-yl)-N-methylcyclohexan-1-amine], for which the IC50 in assay [1] was found to be 1.23 nM; in assay [2] it was 7.22 µM; in assay [3], 4.75 nM.
The corresponding values for `CCN(C)C1CCC(c2nc3c(C(C)C)c(-c4cc(OC)c5ncnn5c4)[nH]c3s2)CC1` (single isomer, unassigned) [Example 73, N-ethyl-4-(6-isopropyl-5-(8-methoxy-[1,2,4]triazolo[1,5-a]pyridin-6-yl)-4H-pyrrolo[3,2-d]thiazol-2-yl)-N-methylcyclohexan-1-amine] are 0.96 nM, 4.28 µM and 12.7 nM.
Consider `CNC1CCC(c2nc3c(C(C)C)c(-c4cc(OC)c5ncnn5c4)[nH]c3s2)CC1` (single isomer, unassigned) [Example 74, 4-(6-isopropyl-5-(8-methoxy-[1,2,4]triazolo[1,5-a]pyridin-6-yl)-4H-pyrrolo[3,2-d]thiazol-2-yl)-N-methylcyclohexan-1-amine], for which the IC50 turned out to be 0.71 nM in assay [1], 1.91 µM in assay [2] and 3.44 nM in assay [3].
As to `CNC1CCC(c2nc3c(C(C)C)c(-c4cc(OC)c5ncnn5c4)[nH]c3s2)CC1` (single isomer, unassigned) [Example 75, 4-(6-isopropyl-5-(8-methoxy-[1,2,4]triazolo[1,5-a]pyridin-6-yl)-4H-pyrrolo[3,2-d]thiazol-2-yl)-N-methylcyclohexan-1-amine], the IC50 in assay [1] came out at 0.89 nM; in assay [2], 3.39 µM; in assay [3] it was 7.55 nM.
In the same order, the values of `COc1cc(-c2[nH]c3sc(C4CCC(N5CCC5)CC4)nc3c2C(C)C)cn2ncnc12` (single isomer, unassigned) [Example 76, 2-(4-(azetidin-1-yl)cyclohexyl)-6-isopropyl-5-(8-methoxy-[1,2,4]triazolo[1,5-a]pyridin-6-yl)-4H-pyrrolo[3,2-d]thiazole] are 0.9 nM, 1.45 µM and 2.62 nM.
Take `COc1cc(-c2[nH]c3sc(C4CCC(N5CCC5)CC4)nc3c2C(C)C)cn2ncnc12` (single isomer, unassigned) [Example 77, 2-(4-(azetidin-1-yl)cyclohexyl)-6-isopropyl-5-(8-methoxy-[1,2,4]triazolo[1,5-a]pyridin-6-yl)-4H-pyrrolo[3,2-d]thiazole]: the IC50 in assay [1] is 2.03 nM; in assay [2], 3.27 µM; in assay [3] it was 21.5 nM.
